≈ marks a conversion by molar mass, not a printed value.
Experiments:
[1] = Aqueous kinetic solubility of the compound at pH 7.4 incubated for 2 hrs by UPLC-MS analysis; format: physicochemical; details: read-out: Kinetic_solubility
Staphylococcus aureus [2] = assay: Antibacterial activity against Staphylococcus aureus ATCC 4330 assessed as inhibition of bacterial growth measured after 16 to 24 hrs by CLSI based broth dilution method; format: functional; details: time 16-24 hrs
Clostridioides difficile [3] = assay: Antibacterial activity against Clostridioides difficile ATCC 43255 assessed as inhibition of bacterial growth measured after 24 hrs by CLSI based broth dilution method; format: functional
Staphylococcus aureus [4] = assay: Antibacterial activity against methicillin-resistant Staphylococcus aureus assessed as inhibition of bacterial growth measured after 16 to 24 hrs by CLSI based broth dilution method; format: functional; details: time 16-24 hrs
Clostridioides difficile [5] = assay: Antibacterial activity against Clostridioides difficile RT015/ST35/A+B+ assessed as inhibition of bacterial growth measured after 24 hrs by CLSI based broth dilution method; format: functional
Clostridioides difficile [6] = assay: Antibacterial activity against Clostridioides difficile RT017/ST37/A-B+ assessed as inhibition of bacterial growth measured after 24 hrs by CLSI based broth dilution method; format: functional
Clostridioides difficile [7] = assay: Antibacterial activity against Clostridioides difficile RT293/ST129/A+B+ assessed as inhibition of bacterial growth measured after 24 hrs by CLSI based broth dilution method; format: functional
Clostridioides difficile [8] = assay: Antibacterial activity against Clostridioides difficile NT/ST221/A+B+CDT+ assessed as inhibition of bacterial growth measured after 24 hrs by CLSI based broth dilution method; format: functional
Clostridioides difficile [9] = assay: Antibacterial activity against Clostridioides difficile NT/ST67/A+B+CDT+ assessed as inhibition of bacterial growth measured after 24 hrs by CLSI based broth dilution method; format: functional
Clostridioides difficile [10] = assay: Antibacterial activity against Clostridioides difficile RT027/ST1/A+B+CDT+ assessed as inhibition of bacterial growth measured after 24 hrs by CLSI based broth dilution method; format: functional
Clostridioides difficile [11] = assay: Antibacterial activity against Clostridioides difficile RT078/ST11/A+B+CDT+ assessed as inhibition of bacterial growth measured after 24 hrs by CLSI based broth dilution method; format: functional
Clostridioides difficile [12] = assay: Antibacterial activity against Clostridioides difficile RT130/ST5/A+B+CDT+ assessed as inhibition of bacterial growth measured after 24 hrs by CLSI based broth dilution method; format: functional
Clostridioides difficile [13] = assay: Antibacterial activity against Clostridioides difficile RT018/ST17/A+B+ assessed as inhibition of bacterial growth measured after 24 hrs by CLSI based broth dilution method; format: functional
Clostridioides difficile [14] = assay: Antibacterial activity against Clostridioides difficile RT001/ST3/A+B+ assessed as inhibition of bacterial growth measured after 24 hrs by CLSI based broth dilution method; format: functional
Clostridioides difficile [15] = assay: Antibacterial activity against Clostridioides difficile RT002/ST8/A+B+ assessed as inhibition of bacterial growth measured after 24 hrs by CLSI based broth dilution method; format: functional
Clostridioides difficile [16] = assay: Antibacterial activity against Clostridioides difficile RT014/ST14/A+B+ assessed as inhibition of bacterial growth measured after 24 hrs by CLSI based broth dilution method; format: functional
Clostridioides difficile [17] = assay: Antibacterial activity against Clostridioides difficile RT012/ST54/A+B+ assessed as inhibition of bacterial growth measured after 24 hrs by CLSI based broth dilution method; format: functional

Compound | MIC (Staphylococcus aureus [2]) [mg/L] | MIC (Clostridioides difficile [3]) [mg/L] | further results
C/C=C1\NC(=O)[C@H]([C@@H](C)O)NC(=O)c2csc(n2)-c2ccc(-c3nc(-c4nc(C(=O)NC5(C(=O)NCCCN6CCN(C(C)C)CC6)CC5)cs4)cs3)nc2-c2csc(n2)[C@H]([C@@H](C)O)NC(=O)c2csc(n2)[C@H](C(C)C)NC(=O)c2csc1n2.Cl | – | – | solubility kinetic at 2 h [1]: 2.8 µg/mL
C/C=C(\NC(=O)c1csc(-c2csc(-c3ccc4c(n3)-c3csc(n3)[C@H]([C@@H](C)O)NC(=O)c3csc(n3)[C@H](C(C)C)NC(=O)c3csc(n3)/C(=C/C)NC(=O)[C@H]([C@@H](C)O)NC(=O)c3csc-4n3)n2)n1)C(=O)NCCn1cc([N+](=O)[O-])nc1C | 1 (≈ 0.807 µM) | 0.25 (≈ 0.202 µM) | –
C/C=C(\NC(=O)c1csc(-c2csc(-c3ccc4c(n3)-c3csc(n3)[C@H]([C@@H](C)O)NC(=O)c3csc(n3)[C@H](C(C)C)NC(=O)c3csc(n3)/C(=C/C)NC(=O)[C@H]([C@@H](C)O)NC(=O)c3csc-4n3)n2)n1)C(=O)NCCN1CCN(C(C)C)CC1.Cl | – | – | solubility kinetic at 2 h [1]: 3 µg/mL
C/C=C(\NC(=O)c1csc(-c2csc(-c3ccc4c(n3)-c3csc(n3)[C@H]([C@@H](C)O)NC(=O)c3csc(n3)[C@H](C(C)C)NC(=O)c3csc(n3)/C(=C/C)NC(=O)[C@H]([C@@H](C)O)NC(=O)c3csc-4n3)n2)n1)C(=O)NCCN1CCOCC1 | 1 (≈ 0.834 µM) | 1 (≈ 0.834 µM) | –
C/C=C1\NC(=O)[C@H]([C@@H](C)O)NC(=O)c2csc(n2)-c2ccc(-c3nc(-c4nc(C(=O)NC5(C(=O)NCCn6c([N+](=O)[O-])cnc6C)CC5)cs4)cs3)nc2-c2csc(n2)[C@H]([C@@H](C)O)NC(=O)c2csc(n2)[C@H](C(C)C)NC(=O)c2csc1n2 | 0.5 (≈ 0.403 µM) | 0.5 (≈ 0.403 µM) | –
C/C(=C\C(=O)OCCCCCCCCC(=O)O)C[C@@H]1OC[C@H](C[C@@H]2O[C@H]2[C@@H](C)[C@H](C)O)[C@@H](O)[C@H]1O [MUPIROCIN] | – | – | MIC50 (Staphylococcus aureus [4]): > 8 mg/L
C/C=C1\NC(=O)[C@H]([C@@H](C)O)NC(=O)c2csc(n2)-c2ccc(-c3nc(-c4nc(C(=O)NC5(C(=O)NCCn6cc([N+](=O)[O-])nc6C)CC5)cs4)cs3)nc2-c2csc(n2)[C@H]([C@@H](C)O)NC(=O)c2csc(n2)[C@H](C(C)C)NC(=O)c2csc1n2 | 1 (≈ 0.807 µM) | 0.5 (≈ 0.403 µM) | –
C/C=C1\NC(=O)[C@H]([C@@H](C)O)NC(=O)c2csc(n2)-c2ccc(-c3nc(-c4nc(C(=O)NC5(C(=O)NCCN6CCOCC6)CC5)cs4)cs3)nc2-c2csc(n2)[C@H]([C@@H](C)O)NC(=O)c2csc(n2)[C@H](C(C)C)NC(=O)c2csc1n2 | 1 (≈ 0.834 µM) | 2 (≈ 1.67 µM) | –
C/C=C1\NC(=O)[C@H]([C@@H](C)O)NC(=O)c2csc(n2)-c2ccc(-c3nc(-c4nc(C(=O)NC5(C(=O)NCCCN6CCOCC6)CC5)cs4)cs3)nc2-c2csc(n2)[C@H]([C@@H](C)O)NC(=O)c2csc(n2)[C@H](C(C)C)NC(=O)c2csc1n2 | 1 (≈ 0.824 µM) | 1 (≈ 0.824 µM) | –
C/C=C1\NC(=O)[C@H]([C@@H](C)O)NC(=O)c2csc(n2)-c2ccc(-c3nc(-c4nc(C(=O)NC5(C(=O)NCCCN6CCN(C(C)C)CC6)CC5)cs4)cs3)nc2-c2csc(n2)[C@H]([C@@H](C)O)NC(=O)c2csc(n2)[C@H](C(C)C)NC(=O)c2csc1n2 | 1 (≈ 0.797 µM) | 1 (≈ 0.797 µM) | solubility kinetic at 2 h [1]: 120 µg/mL (≈ 95.6 µM)
C/C=C1\NC(=O)[C@H]([C@@H](C)O)NC(=O)c2csc(n2)-c2ccc(-c3nc(-c4nc(C(=O)NC5(C(=O)NCCCN6C(=O)CNC6=O)CC5)cs4)cs3)nc2-c2csc(n2)[C@H]([C@@H](C)O)NC(=O)c2csc(n2)[C@H](C(C)C)NC(=O)c2csc1n2 | 1 (≈ 0.815 µM) | 0.125 (≈ 0.102 µM) | MIC (Clostridioides difficile [5]): 0.25 mg/L (≈ 0.204 µM); MIC (Clostridioides difficile [6]): 0.5 mg/L (≈ 0.408 µM); MIC (Clostridioides difficile [7]): 0.5 mg/L (≈ 0.408 µM); MIC (Clostridioides difficile [8]): 0.5 mg/L (≈ 0.408 µM); MIC (Clostridioides difficile [9]): 0.5 mg/L (≈ 0.408 µM); MIC (Clostridioides difficile [10]): 0.5 mg/L (≈ 0.408 µM); MIC (Clostridioides difficile [11]): 0.5 mg/L (≈ 0.408 µM); MIC (Clostridioides difficile [12]): 0.5 mg/L (≈ 0.408 µM); MIC (Clostridioides difficile [13]): 0.25 mg/L (≈ 0.204 µM); MIC (Clostridioides difficile [14]): 0.25 mg/L (≈ 0.204 µM); MIC (Clostridioides difficile [15]): 0.5 mg/L (≈ 0.408 µM); MIC (Clostridioides difficile [16]): 0.5 mg/L (≈ 0.408 µM); MIC (Clostridioides difficile [17]): 0.5 mg/L (≈ 0.408 µM)
C/C=C1\NC(=O)[C@H]([C@@H](C)O)NC(=O)c2csc(n2)-c2ccc(-c3nc(-c4nc(C(=O)NC5(C(=O)NCCN6C(=O)CNC6=O)CC5)cs4)cs3)nc2-c2csc(n2)[C@H]([C@@H](C)O)NC(=O)c2csc(n2)[C@H](C(C)C)NC(=O)c2csc1n2 | 1 (≈ 0.825 µM) | > 16 | –
C/C=C1\NC(=O)[C@H]([C@@H](C)O)NC(=O)c2csc(n2)-c2ccc(-c3nc(-c4nc(C(=O)NC5(C(=O)NCCn6ccnc6[N+](=O)[O-])CC5)cs4)cs3)nc2-c2csc(n2)[C@H]([C@@H](C)O)NC(=O)c2csc(n2)[C@H](C(C)C)NC(=O)c2csc1n2 | 1 (≈ 0.816 µM) | 0.5 (≈ 0.408 µM) | –
C/C=C(\NC(=O)c1csc(-c2csc(-c3ccc4c(n3)-c3csc(n3)[C@H]([C@@H](C)O)NC(=O)c3csc(n3)[C@H](C(C)C)NC(=O)c3csc(n3)/C(=C/C)NC(=O)[C@H]([C@@H](C)O)NC(=O)c3csc-4n3)n2)n1)C(=O)NCCn1ccnc1[N+](=O)[O-] | 1 (≈ 0.816 µM) | 0.5 (≈ 0.408 µM) | –
C/C=C(\NC(=O)c1csc(-c2csc(-c3ccc4c(n3)-c3csc(n3)[C@H]([C@@H](C)O)NC(=O)c3csc(n3)[C@H](C(C)C)NC(=O)c3csc(n3)/C(=C/C)NC(=O)[C@H]([C@@H](C)O)NC(=O)c3csc-4n3)n2)n1)C(=O)NCC(C)=O | 0.5 (≈ 0.438 µM) | 1 (≈ 0.875 µM) | solubility kinetic at 2 h [1]: 0.07 µg/mL (≈ 0.0613 µM)
C/C=C(\NC(=O)c1csc(-c2csc(-c3ccc4c(n3)-c3csc(n3)[C@H]([C@@H](C)O)NC(=O)c3csc(n3)[C@H](C(C)C)NC(=O)c3csc(n3)/C(=C/C)NC(=O)[C@H]([C@@H](C)O)NC(=O)c3csc-4n3)n2)n1)C(=O)NCCCN1CCOCC1 | 1 (≈ 0.824 µM) | 0.5 (≈ 0.412 µM) | –
